# In the supplement of paper PMC11451515:
# Tested on: SEM cells
# Test: cell viability relative to DMSO control; higher = less cytotoxic
# Conditions: 48 h
# Method in brief: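 Cells were incubated for 48 h at 37°C before CellTiter-Glo One luminescence was read. The cells were NOMO1 or SEM (500 cells/well) or P12-Ichikawa (1000 cells/well) leukemia cells, adapted for at least four passages in each medium and seeded in 1536-well plates (5 μl). Dosing used library compounds in DMSO applied by pin over 11 threefold points, 47 μM to 0.79 nM. Viability is the per-plate percentage of DMSO wells, with cell-free wells as background.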
# [1] = HPLM + 10% dialyzed FBS, 0.000781 µM
# [2] = HPLM + 10% dialyzed FBS, 0.00234 µM
# [3] = HPLM + 10% dialyzed FBS, 0.00702 µM
# [4] = HPLM + 10% dialyzed FBS, 0.0211 µM
# [5] = HPLM + 10% dialyzed FBS, 0.0632 µM
# [6] = HPLM + 10% dialyzed FBS, 0.19 µM
# [7] = HPLM + 10% dialyzed FBS, 0.569 µM
# [8] = HPLM + 10% dialyzed FBS, 1.71 µM
# [9] = HPLM + 10% dialyzed FBS, 5.12 µM
# [10] = HPLM + 10% dialyzed FBS, 15.4 µM
# [11] = HPLM + 10% dialyzed FBS, 46.1 µM
# [12] = RPMI 5 mM glucose + 10% FBS, 0.000781 µM
# [13] = RPMI 5 mM glucose + 10% FBS, 0.00234 µM
# [14] = RPMI 5 mM glucose + 10% FBS, 0.00702 µM
# [15] = RPMI 5 mM glucose + 10% FBS, 0.0211 µM
# [16] = RPMI 5 mM glucose + 10% FBS, 0.0632 µM
# [17] = RPMI 5 mM glucose + 10% FBS, 0.19 µM
# [18] = RPMI 5 mM glucose + 10% FBS, 0.569 µM
# [19] = RPMI 5 mM glucose + 10% FBS, 1.71 µM
# [20] = RPMI 5 mM glucose + 10% FBS, 5.12 µM
# [21] = RPMI 5 mM glucose + 10% FBS, 15.4 µM
# [22] = RPMI 5 mM glucose + 10% FBS, 46.1 µM
# [23] = RPMI 5 mM glucose + 10% dialyzed FBS, 0.000781 µM
# [24] = RPMI 5 mM glucose + 10% dialyzed FBS, 0.00234 µM
# [25] = RPMI 5 mM glucose + 10% dialyzed FBS, 0.00702 µM
# [26] = RPMI 5 mM glucose + 10% dialyzed FBS, 0.0211 µM
# [27] = RPMI 5 mM glucose + 10% dialyzed FBS, 0.0632 µM
# [28] = RPMI 5 mM glucose + 10% dialyzed FBS, 0.19 µM
# [29] = RPMI 5 mM glucose + 10% dialyzed FBS, 0.569 µM
# [30] = RPMI 5 mM glucose + 10% dialyzed FBS, 1.71 µM
# [31] = RPMI 5 mM glucose + 10% dialyzed FBS, 5.12 µM
# [32] = RPMI 5 mM glucose + 10% dialyzed FBS, 15.4 µM
# [33] = RPMI 5 mM glucose + 10% dialyzed FBS, 46.1 µM
Compound,cell viability [1],cell viability [2],cell viability [3],cell viability [4],cell viability [5],cell viability [6],cell viability [7],cell viability [8],cell viability [9],cell viability [10],cell viability [11],cell viability [12],cell viability [13],cell viability [14],cell viability [15],cell viability [16],cell viability [17],cell viability [18],cell viability [19],cell viability [20],cell viability [21],cell viability [22],cell viability [23],cell viability [24],cell viability [25],cell viability [26],cell viability [27],cell viability [28],cell viability [29],cell viability [30],cell viability [31],cell viability [32],cell viability [33]
CCN(CC)CCN1C(=O)\C(=N/C2=CC=CC=C12)CC3=CC=C(OC)C=C3,68.2%,67.5%,87.2%,76.3%,85.3%,80.3%,99.1%,83.6%,75.2%,86.8%,85.4%,82.7%,93.1%,97.8%,78.5%,93.8%,105%,101%,106%,91.9%,92%,107%,78.2%,89.4%,87.1%,89%,94.3%,97.1%,112%,96.6%,93.3%,88%,102%
C=CCn1c(=O)c2cnc(Nc3ccc(N4CCN(C)CC4)cc3)nc2n1-c1cccc(C(C)(C)O)n1,117%,118%,127%,110%,98.6%,81.4%,61.4%,28.3%,25.7%,24.5%,29.4%,–,–,–,–,–,–,–,–,–,–,–,111%,119%,135%,93.5%,90.8%,64.6%,52.7%,26.3%,15.7%,19.3%,21.8%
CN(C)CCCNC(=O)c1ccc(-c2cc(O)c3ncccc3c2)cc1,107%,110%,112%,103%,99.7%,103%,104%,91.6%,92.6%,81.9%,40.2%,107%,107%,109%,103%,117%,112%,120%,115%,104%,78.2%,27.1%,95.5%,103%,95.2%,113%,95.2%,100%,103%,105%,93.3%,74.1%,33%
COC(=O)[C@@H](N)CCCNC(=N)N[N+](=O)[O-],82%,37.9%,89.1%,96.1%,94.3%,95.1%,87.2%,110%,93.1%,89.9%,95.2%,95.5%,39.2%,90.7%,92.1%,95.2%,102%,90.3%,101%,104%,104%,101%,85.1%,26.2%,78%,89.3%,101%,84.8%,99%,108%,101%,107%,104%
CCNC(=O)[C@H]1O[C@@H](n2cnc3c(N)nc(NCCc4ccc(CCC(=O)O)cc4)nc32)[C@H](O)[C@@H]1O,100%,90.7%,106%,111%,115%,107%,107%,110%,106%,104%,78.8%,83.6%,33.4%,91.4%,97.6%,103%,108%,110%,88.1%,92%,89.6%,62.3%,88.3%,84.3%,101%,102%,116%,116%,117%,96.3%,109%,99%,74.8%
COc1ccc(Nc2cc(-c3cnc(N)nc3)nc(N3CCOCC3)n2)cn1,93.8%,96.7%,90.6%,96.8%,99.4%,102%,92.6%,84.7%,47.3%,59.8%,44.6%,104%,104%,110%,115%,120%,99.5%,108%,99%,52.8%,65.6%,57%,98.6%,89.5%,91%,105%,97%,80.9%,89.6%,89.7%,43.9%,57.4%,44.5%
CO[C@H]1C[C@@H]2CC[C@@H](C)[C@@](O)(O2)C(=O)C(=O)N2CCCC[C@H]2C(=O)O[C@H]([C@H](C)C[C@@H]2CC[C@@H](OCCO)[C@H](OC)C2)CC(=O)[C@H](C)/C=C(/C)[C@@H](O)[C@@H](OC)C(=O)[C@H](C)C[C@H](C)\C=C/C=C\C=C/1C,47.5%,91.9%,74.6%,65.2%,77.2%,58.6%,42.7%,42.1%,20.8%,10.7%,14.2%,51.7%,86.2%,71.1%,71.7%,75%,64.9%,41.5%,28.4%,17.2%,12.9%,12.6%,50.8%,84%,73.8%,65.4%,68.3%,63.4%,49.5%,37%,13.7%,10.4%,11.8%
COC[C@H]1OC(=O)C2=COC3=C2[C@@]1(C)\C4=C(\[C@@H]5CC[C@H](O)[C@@]5(C)C[C@H]4OC(C)=O)C3=O,95.1%,117%,48.9%,114%,113%,113%,117%,111%,102%,98.6%,54.7%,60.9%,67.4%,15.9%,71.7%,77.7%,84.9%,67.9%,77.3%,55.9%,53.2%,33.7%,101%,99%,45.8%,98.4%,115%,108%,104%,105%,84.7%,68.2%,30.8%
Cc1ccc(C(=O)c2cc(O)c(O)c([N+](=O)[O-])c2)cc1,78.2%,96.4%,98.5%,81.4%,97.7%,91.1%,115%,110%,108%,111%,95.6%,92.6%,88%,103%,100%,96.7%,101%,101%,99.7%,110%,87.6%,95.9%,83.1%,82.8%,88.7%,96.1%,93.4%,94%,80.8%,89.4%,102%,88.8%,101%
O=C1NC(=O)/C(=C/c2cccc(C(F)(F)F)c2)S1,100%,93.3%,96.5%,108%,101%,102%,100%,100%,107%,89.1%,66.7%,99.5%,100%,110%,108%,112%,108%,115%,104%,108%,98.9%,59.7%,93.7%,106%,106%,115%,99.6%,94.4%,102%,108%,109%,102%,62.5%
C[N+](C)([O-])CCNc1ccc(NCC[N+](C)(C)[O-])c2c1C(=O)c1c(O)ccc(O)c1C2=O,101%,85.4%,83.8%,84.5%,88.8%,77.1%,69.7%,46.4%,7.02%,20.1%,10.1%,101%,95.8%,105%,89.9%,73.5%,56.6%,55.8%,28.8%,7.28%,12.8%,9.18%,88.9%,86.1%,93.8%,87.7%,79.5%,68.2%,62%,33.5%,8.62%,18.8%,12%
Nc1nc(OCc2ccccc2)c2nc[nH]c2n1,99.9%,107%,114%,112%,112%,124%,114%,115%,115%,105%,127%,82%,101%,84.5%,92.3%,103%,97.5%,89.4%,78.4%,93.8%,76.7%,88.9%,90.2%,102%,109%,103%,104%,112%,98.6%,86.6%,94.5%,76.1%,103%
CN1C(=O)/C=C(/NCCN(CCO)CCCC2=CC=C(C=C2)[N+]([O-])=O)N(C)C1=O,104%,113%,121%,114%,108%,136%,121%,119%,120%,108%,66.6%,112%,111%,131%,118%,109%,138%,133%,123%,95.2%,105%,55%,103%,123%,135%,111%,144%,138%,136%,137%,121%,107%,50.8%
Cc1cc(Cl)ccc1OCCCC(=O)NO,105%,96.7%,103%,117%,130%,120%,118%,101%,89%,34%,12.8%,107%,101%,102%,122%,112%,117%,115%,124%,91.7%,43.9%,10.9%,98.8%,96.2%,93.5%,99.4%,97.1%,106%,105%,89.5%,76.5%,26.7%,10.2%
CN(C)CC/C=C1/c2ccccc2COc2ccc(CC(=O)O)cc21,85.4%,81.8%,108%,120%,113%,130%,132%,124%,101%,141%,126%,123%,106%,124%,127%,136%,132%,143%,144%,121%,148%,142%,–,–,–,–,–,–,–,–,–,–,–
COc1ccc2c(c1OC)CN1CCc3cc4c(cc3C1C2)OCO4 (stereo unspecified),85.3%,80.1%,86.5%,104%,87.4%,64.3%,72.8%,41.3%,13%,8.04%,7.89%,92.5%,93.6%,87%,93.6%,84.3%,45.6%,59.8%,20.2%,9.42%,7.3%,6.85%,79.6%,83.1%,96.7%,90.8%,99%,55%,56.5%,28.8%,11.3%,8.19%,8.01%
